What was measured:
GHSR = target: T1, GHSR (Homo sapiens, UniProt Q92847); experiment: luciferase assay system, ghrelin receptor family selectivity; type: cell-based; settings: compared with intrinsic ligand, FIG. 74
T1 construct: expressed in transfected cells
Protocol: (§1) In addition, through the activity test of the HKFY derivatives for similar receptors to GPR39, ghrelin receptor family (ghrelin receptor (GHSR), motilin receptor (MTLR), neurotensin receptor (NTSR1 & NTSR2), neuromedin U receptor (NMU1 & NMU2), TRH (thyrotropin releasing hormone) receptor (TRHR)), the selectivity and specificity for the GPR39 receptor were confirmed.
(§2) Specifically, the degree of activity between the intrinsic ligand and HKFY-34 for each receptor was analyzed using a luciferase assay system (FIG. 74).

MTLR = target: T2, MTLR (Homo sapiens, UniProt O43193); experiment: as above; type: cell-based; settings: compared with intrinsic ligand, FIG. 74
T2 construct: expressed in transfected cells
Protocol: as §1, §2

NMU1 = target: T3, NMU1 (Homo sapiens, UniProt Q9HB89); experiment: as above; type: cell-based; settings: compared with intrinsic ligand, FIG. 74
T3 construct: expressed in transfected cells
Protocol: as §1, §2

NMU2 = target: T4, NMU2 (Homo sapiens, UniProt Q9GZQ4); experiment: as above; type: cell-based; settings: compared with intrinsic ligand, FIG. 74
T4 construct: expressed in transfected cells
Protocol: as §1, §2

NTSR1 = target: T5, NTSR1 (Homo sapiens, UniProt P30989); experiment: as above; type: cell-based; settings: compared with intrinsic ligand, FIG. 74
T5 construct: expressed in transfected cells
Protocol: as §1, §2

NTSR2 = target: T6, NTSR2 (Homo sapiens, UniProt O95665); experiment: as above; type: cell-based; settings: compared with intrinsic ligand, FIG. 74
T6 construct: expressed in transfected cells
Protocol: as §1, §2

TRHR = target: T7, TRHR (Homo sapiens, UniProt P34981); experiment: as above; type: cell-based; settings: compared with intrinsic ligand, FIG. 74
T7 construct: expressed in transfected cells
Protocol: as §1, §2

[1] = test system: adipose tissue (white adipose tissue, WAT); experiment: lipolytic ability (secreted glycerol) in adipose tissue (WAT); type: cell-based, mice
Protocol: In addition, lipolytic ability according to the HKFY-34 treatment by concentration (100 nM, 500 nM, […] (FIG. 84). When the signal of lipolysis is transmitted, lipid droplet glycerol and free fatty acid in adipocytes are secreted as final products and come out of the cell. At this time, the degree of lipolysis can be confirmed by quantifying the secreted glycerol. Isoproterenol, a positive control group, is an agonist of β-adrenergic receptors and mainly promotes lipolytic ability in adipocytes.

[2] = test system: pERK and pPKA in WAT cells; experiment: pERK and pPKA expression by western blot in WAT; type: cell-based, mice; settings: FIG. 86
Protocol: In order to analyze the mechanism of lipolytic ability according to the HKFY derivative treatment in 3T3-L1 cells and WAT cells, the expression levels of pERK and pPKA were analyzed (FIGS. 85 and 86).
Specifically, protein was purified from 3T3L-1 cells (Korea Cell Line Bank) and WAT (tissue culture using mice purchased from Central Lab. Animal Inc.) treated with the HKFY derivatives, and then each antibody for pERK, ERK, pPKA, and PKA expressed in mice was used, and the expression level of each protein due to the derivatives was measured through western blot.

db/db mice [3] = experiment: glucose tolerance test in mouse model of diabetes mellitus disease; type: in vivo; settings: db/db mice, 0.5, 1, 5 and 10 mg/kg subcutaneously, glucose 1.5 g/kg i.p. after 30 minutes
Protocol: The glucose tolerance level in a mouse model of diabetes mellitus disease according to the HKFY derivative treatment was analyzed (FIG. 87).
Specifically, male db/db mice (5 to 7-week-old, Central Lab. Animal Inc.), which is a mouse model of diabetes mellitus disease, were fasted for 16 hours, and then HKFY-34 was administered subcutaneously at a concentration of 0.5, 1, 5 and 10 mg/kg, respectively. After 30 minutes, glucose (1.5 g/kg) was intraperitoneally administered. After 0, 15, 30, 45, 60, 90, 120 and 180 minutes, blood was collected from the tail of the mice, and the blood glucose was measured with a blood glucose meter (acc-check, Roche, Germany) to analyze the glucose tolerance.

db/db mice [4] = experiment: blood insulin level in mouse model of diabetes mellitus disease (mouse ELISA); type: in vivo
Protocol: In addition, the blood insulin level was analyzed simultaneously with the glucose tolerance test for the mouse model of diabetes mellitus disease (FIG. 88).
Specifically, after 0, 15, 30, 60, 90, 120 and 180 minutes, blood was collected from the orbital veins of mice, and the insulin level in plasma was analyzed using mouse ELISA.

[5] = test system: C57BL6/J mice with high-fat feed (DIO); experiment: glucose tolerance test in mouse model of obesity disease (DIO); type: in vivo; settings: FIG. 89
Protocol: In addition, the glucose tolerance level and insulin level according to HKFY-34 treatment in a mouse model of obesity disease were analyzed (FIGS. 89 and 90).
Specifically, in the glucose tolerance level and insulin level analysis experiment, the experiment was performed by changing the mouse model of diabetes mellitus disease into a mouse model of obesity disease (DIO), in which obesity was induced by providing male C57BL6/J mice (6 to 7-week-old, Central Lab. Animal Inc.) with a high-fat feed (60% fat chow) for 5-6 weeks.

GPR39 KO mice = experiment: glucose tolerance test in GPR39 KO mouse model induced by a high-fat diet; type: in vivo; settings: 16, 17 and 18-week-old GPR39 KO mice, high-fat feed, 0.5, 1, 5 and 10 mg/kg subcutaneously
Protocol: In addition, the glucose tolerance level in the GPR39 KO mouse model induced by a high-fat diet according to the HKFY derivative treatment was analyzed (FIG. 91).
Specifically, obesity was induced by providing male GPR39 KO mice (6 to 7-week-old, Central Lab. Animal Inc.) with a high-fat feed (60% fat chow) for 5-6 weeks. HKFY-34 was administered subcutaneously at a concentration of 0.5, 1, 5 and 10 mg/kg, respectively, to the 16, 17 or 18-week-old GPR39 KO mice, in which obesity was induced. After 30 minutes, glucose (1.5 g/kg) was intraperitoneally administered. After 0, 15, 30, 45, 60, 90, 120 and 180 minutes, blood was collected from the tail of the mice, and the blood glucose was measured with a blood glucose meter (acc-check, Roche, Germany) to analyze the glucose tolerance.

T6 sequence (O95665 whole entry, species assumed): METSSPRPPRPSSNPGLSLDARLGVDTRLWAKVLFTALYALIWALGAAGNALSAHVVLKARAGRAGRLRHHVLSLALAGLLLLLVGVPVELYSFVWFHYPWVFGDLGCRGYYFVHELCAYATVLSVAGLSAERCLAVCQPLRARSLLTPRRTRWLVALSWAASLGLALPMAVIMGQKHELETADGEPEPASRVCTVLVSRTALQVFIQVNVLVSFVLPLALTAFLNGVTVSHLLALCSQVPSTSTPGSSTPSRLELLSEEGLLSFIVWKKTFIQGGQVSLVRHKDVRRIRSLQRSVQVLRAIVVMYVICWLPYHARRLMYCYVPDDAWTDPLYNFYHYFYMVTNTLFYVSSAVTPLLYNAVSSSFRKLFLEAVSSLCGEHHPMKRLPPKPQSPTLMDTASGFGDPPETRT
T7 sequence (P34981 whole entry, species assumed): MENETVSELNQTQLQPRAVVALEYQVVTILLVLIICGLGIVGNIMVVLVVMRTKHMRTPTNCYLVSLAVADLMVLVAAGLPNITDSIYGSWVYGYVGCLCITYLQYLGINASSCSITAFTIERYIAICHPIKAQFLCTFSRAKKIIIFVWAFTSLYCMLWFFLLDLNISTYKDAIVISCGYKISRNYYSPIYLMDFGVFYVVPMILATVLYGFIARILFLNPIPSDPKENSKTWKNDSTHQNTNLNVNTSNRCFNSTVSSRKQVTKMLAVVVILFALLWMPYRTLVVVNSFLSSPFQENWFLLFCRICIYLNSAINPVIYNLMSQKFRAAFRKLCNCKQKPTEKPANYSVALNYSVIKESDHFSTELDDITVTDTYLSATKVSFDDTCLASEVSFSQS
T2 sequence (O43193 whole entry, species assumed): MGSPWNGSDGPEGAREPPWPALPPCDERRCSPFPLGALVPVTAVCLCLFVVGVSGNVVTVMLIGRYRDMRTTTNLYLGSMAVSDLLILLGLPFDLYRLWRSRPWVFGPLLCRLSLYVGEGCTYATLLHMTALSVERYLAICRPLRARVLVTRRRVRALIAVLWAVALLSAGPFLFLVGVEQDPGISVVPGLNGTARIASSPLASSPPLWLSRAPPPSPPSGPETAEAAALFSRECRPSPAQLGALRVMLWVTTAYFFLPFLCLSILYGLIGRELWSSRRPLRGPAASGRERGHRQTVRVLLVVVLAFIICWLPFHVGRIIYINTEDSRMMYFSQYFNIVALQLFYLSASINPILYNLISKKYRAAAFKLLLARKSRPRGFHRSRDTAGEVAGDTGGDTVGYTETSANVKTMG
T1 sequence (Q92847 whole entry, species assumed): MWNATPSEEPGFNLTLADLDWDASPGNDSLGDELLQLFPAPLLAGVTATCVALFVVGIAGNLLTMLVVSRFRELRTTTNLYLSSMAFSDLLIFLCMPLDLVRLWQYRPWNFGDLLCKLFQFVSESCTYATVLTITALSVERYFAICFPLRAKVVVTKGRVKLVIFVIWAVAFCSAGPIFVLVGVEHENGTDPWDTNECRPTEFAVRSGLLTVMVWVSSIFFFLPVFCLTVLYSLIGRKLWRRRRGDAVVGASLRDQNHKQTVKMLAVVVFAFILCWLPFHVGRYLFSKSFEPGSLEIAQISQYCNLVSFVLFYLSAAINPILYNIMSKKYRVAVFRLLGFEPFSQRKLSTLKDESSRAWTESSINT
T3 sequence (Q9HB89 whole entry): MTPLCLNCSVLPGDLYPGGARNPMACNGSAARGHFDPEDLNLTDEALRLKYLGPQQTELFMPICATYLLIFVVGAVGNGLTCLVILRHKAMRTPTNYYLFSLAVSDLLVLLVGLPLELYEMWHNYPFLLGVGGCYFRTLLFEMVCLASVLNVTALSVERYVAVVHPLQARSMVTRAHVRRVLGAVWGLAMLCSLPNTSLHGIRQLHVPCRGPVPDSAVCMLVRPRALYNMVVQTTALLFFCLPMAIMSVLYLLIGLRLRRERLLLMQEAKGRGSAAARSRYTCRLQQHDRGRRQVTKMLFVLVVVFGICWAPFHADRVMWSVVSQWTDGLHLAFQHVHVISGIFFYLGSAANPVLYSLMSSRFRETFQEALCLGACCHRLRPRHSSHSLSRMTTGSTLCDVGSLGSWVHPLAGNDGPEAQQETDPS
T5 sequence (P30989 whole entry, species assumed): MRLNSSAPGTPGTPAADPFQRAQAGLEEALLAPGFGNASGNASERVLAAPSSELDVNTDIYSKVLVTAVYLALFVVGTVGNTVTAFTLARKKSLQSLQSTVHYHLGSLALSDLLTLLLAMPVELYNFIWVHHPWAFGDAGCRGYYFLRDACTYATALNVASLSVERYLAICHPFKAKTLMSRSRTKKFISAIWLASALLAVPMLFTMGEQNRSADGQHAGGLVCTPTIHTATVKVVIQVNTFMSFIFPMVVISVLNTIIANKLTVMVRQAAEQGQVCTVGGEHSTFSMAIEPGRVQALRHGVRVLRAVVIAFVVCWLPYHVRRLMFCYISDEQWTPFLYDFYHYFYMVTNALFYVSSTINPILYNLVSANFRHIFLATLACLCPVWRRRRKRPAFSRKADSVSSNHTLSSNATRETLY
T4 sequence (Q9GZQ4 whole entry, species assumed): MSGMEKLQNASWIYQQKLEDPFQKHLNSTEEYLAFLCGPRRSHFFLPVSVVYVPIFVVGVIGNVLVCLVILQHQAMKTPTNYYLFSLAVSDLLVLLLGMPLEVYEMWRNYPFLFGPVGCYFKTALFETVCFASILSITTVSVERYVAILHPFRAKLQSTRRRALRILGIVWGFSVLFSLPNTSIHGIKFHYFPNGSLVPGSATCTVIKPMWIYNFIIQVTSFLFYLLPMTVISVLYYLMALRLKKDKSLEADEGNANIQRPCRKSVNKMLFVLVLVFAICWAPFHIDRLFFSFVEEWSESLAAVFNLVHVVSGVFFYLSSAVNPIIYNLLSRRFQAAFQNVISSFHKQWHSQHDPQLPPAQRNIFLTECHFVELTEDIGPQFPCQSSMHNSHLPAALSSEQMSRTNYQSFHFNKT

Q: Which “activity for GHSR” value (GHSR) does the source give for CCCCCCCC(=O)NCCCC[C@H](NC(=O)[C@@H](N)Cc1cn(C(c2ccccc2)c2ccccc2)cn1)C(=O)N[C@H](Cc1ccc(C)cc1)C(=O)N[C@@H](Cc1ccc(O)cc1)C(=O)O [HKFY-34, ((R)-2-((S)-2-((S)-2-amino-3-(1-benzhydryl-1H-imidazol-4-yl)propanamido)-6-octanamidohexanamido)-3-(p-tolyl)propanoyl)-L-tyrosine] here?
A: very low

Q: And the “activity for MTLR” value (MTLR)?
A: very low

Q: What about the “activity for NMU1” value (NMU1) of the same molecule?
A: very low

Q: What about the “activity for NMU2” value (NMU2) of the same molecule?
A: very low

Q: What about the “activity for NTSR1” value (NTSR1) of the same molecule?
A: very low

Q: What about the “activity for NTSR2” value (NTSR2) of the same molecule?
A: very low

Q: And the “activity for TRHR” value (TRHR)?
A: very low

Q: What about the lipolytic ability ([1]; HKFY-34 concentration 10 μM or higher) of the same molecule?
A: significantly increased

Q: And the lipolytic ability ([1]; by concentration, FIG. 84)?
A: increased in a concentration dependent manner

Q: And the “expression of pERK compared to ERK” value [2]?
A: increased

Q: And the “expression of pPKA compared to PKA” value [2]?
A: increased

Q: What about the glucose tolerance (db/db mice [3]) of the same molecule?
A: significant glucose tolerance in a concentration dependent manner

Q: And the “insulin secretion (plasma insulin level)” value (db/db mice [4]; db/db mice, 0.5, 1, 5 and 10 mg/kg subcutaneously)?
A: increased in a concentration dependent manner

Q: And the insulin secretion level (db/db mice [4]; db/db mice, 5 and 10 mg/kg)?
A: significantly increased

Q: What about the glucose tolerance [5] of the same molecule?
A: glucose tolerance in a concentration dependent manner

Q: What about the glucose tolerance (GPR39 KO mice) of the same molecule?
A: significant glucose tolerance was not observed
